# Reference: PMC6593224, “Validation and Invalidation of Chemical Probes for the Human N-myristoyltransferases” (Cell Chemical Biology, 2019)
# Entries after “also recorded” stand apart in the source; their conditions may differ. Like-named read-outs stand apart in the source and are kept apart here.
# Key:
# [1] = Precipitation in rNMT1 buffer, absorbance at 750 nm; format: physicochemical; conditions: 15 min at room temperature
# Description: Absorbance at 750 nm was determined after 15 min at room temperature.
# and 72 h. Mean of quadruplicate measurements, ± SEM.
# (E) Nuclei counts of HeLa cells after exposure to 1-5 for 24, 48 and 72 h. Mean of quadruplicate
# [2] = system: NMT (in-cell target engagement, ARL1); experiment: Sortase A assay (peptide addition to ARL1), human cell lines
# Description: (§1) The homogenate was further disrupted by shearing it three times through a 30G needle. […] Hereafter the reaction was quenched with 5 mM EDTA and stored at −20°C until further analysis.
# [3] = Precipitation in growth media
# [4] = system: N-myristoylation in living cells; conditions: cited from earlier work
# [5] = system: N-myristoylated proteome (NMT substrates); experiment: Quantitative chemical proteomics of YnMyr-tagged proteins; format: cell-based, human; conditions: MDA-MB-231 (n = 75)
# Source text: HeLa and MDA-MB-231 cells were exposed (in triplicate) to 1–5, in a setup identical to that used for in-gel analyses (Figure 2A), with the exception that YnMyr-tagged proteins were ligated to AzRB. Labeled proteins were enriched on NeutrAvidin-agarose and digested on-resin with trypsin; peptides were labeled with tandem mass tag, and analyzed and quantified by nano-liquid chromatography-tandem mass spectrometry on a Thermo Q-Exactive instrument.
# Cysteine carbamidomethylation was used as a fixed modification and methionine oxidation and N-terminal acetylation as variable modifications. ‘Trypsin/P’ was chosen as digestion mode enzyme, and up to two missed cleavages were allowed. The ‘match between run’ option was selected, along with ‘unique and razor peptides’ for protein quantification. TMT was set per sample group. […] The false discovery rate was set to 0.01 for peptides and a minimum of 2 unique peptides per protein were required. The mass spectrometry proteomics data have been deposited to the ProteomeXchange Consortium via the PRIDE partner repository with the dataset identifier PXD012722.
# MDA-MB-231 cells = experiment: Nuclei counting as a measure for proliferation; format: cell-based, human
# Description: After 24, 48 or 72 h of exposure, cell viability was evaluated by determination of metabolic activity and counting of cellular nuclei. Metabolic activity was assessed by addition of Cell Titer Blue (Promega), incubation at 37°C and the appropriate percentage of CO2 for 3 h, followed by measuring the absorbance at 490 nm using a PHERAstar (BMG LabTech, Germany). For nuclei counting, cells were fixed with 4% (w/v) paraformaldehyde at room temperature (RT) for 20 min, permeabilised with 0.2% (v/v) Triton X-100 in PBS at RT for 20 min, DNA stained with 1 μg/mL DAPI (Life Technologies, D1306) at RT for 1 h, followed by three washes with PBS. Whole well images for the total number of cells were acquired with an Acumen Cellista (TTP Labtech), using the 405 nm excitation / FL1 (420-500 nm) emission channel. The cell viability was normalised to the negative control (DMSO) and positive control (Staurosporin and puromycin), followed by fitting the four-parametric variable slope function (GraphPad Prism 5.0) to data of quadruplicate experiments.
# [6] = system: NMT within living cells (N-myristoylation); experiment: YnMyr metabolic tagging, in-gel fluorescence; conditions: for N-myristoylation in cells (summary of assays): 1 μM IMP-366, 100 nM IMP-1088, 100 μM 2-hydroxymyristic acid, 30 μM D-NMAPPD, 10 μM Tris-DBA palladium, 18 h; for quantification of YnMyr tagging of ten bands: MDA-MB-231 and HeLa, 100 μM 3, 30 μM 4, 10 μM 5
# human NMTs = conditions: read-out: In Vitro IC50, Reported, cited from earlier work
# [7] = target: T1, recombinant human N-myristoyltransferase 1 (rNMT1) (Homo sapiens, UniProt P30419); experiment: Enzymatic HsNMT1 assay (CPM detection of CoA thiol by-product); format: biochemical; conditions: for rNMT1 activity: below 300 μM
# T1 construct: Full-length HsNMT1 enzyme was produced as previously described; made in house
# T1 sequence (P30419 1-496): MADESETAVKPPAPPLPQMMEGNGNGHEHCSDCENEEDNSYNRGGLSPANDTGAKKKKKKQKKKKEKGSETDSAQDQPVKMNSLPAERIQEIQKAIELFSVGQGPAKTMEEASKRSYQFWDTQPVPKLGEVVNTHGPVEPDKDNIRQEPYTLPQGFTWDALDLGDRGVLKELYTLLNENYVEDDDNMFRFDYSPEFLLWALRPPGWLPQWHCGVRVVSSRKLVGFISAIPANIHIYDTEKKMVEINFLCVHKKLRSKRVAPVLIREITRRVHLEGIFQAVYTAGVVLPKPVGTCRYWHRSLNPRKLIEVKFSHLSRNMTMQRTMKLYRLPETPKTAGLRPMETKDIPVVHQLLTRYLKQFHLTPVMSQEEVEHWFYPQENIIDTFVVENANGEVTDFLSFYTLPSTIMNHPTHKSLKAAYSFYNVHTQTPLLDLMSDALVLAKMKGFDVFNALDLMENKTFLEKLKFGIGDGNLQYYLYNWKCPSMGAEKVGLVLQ
# Description: After background correction, IC50 values were determined by fitting the four-parametric variable slope function (GraphPad Prism 5.0), with the stated IC50 values being the mean of two independent assays performed in triplicate.
# HeLa cells [8] = experiment: Apoptosis, active caspase-3 staining by FACS; conditions: 18 h, 30 μM 4, 10 μM 5
# [9] = system: lysosomal acid ceramidase; parameters: method as in Raisova et al., 2002; conditions: various cancer cell lines, >5 μM 4; ref Raisova et al., 2002; cited from earlier work
# HeLa cells [10] = experiment: Cell-cycle distribution by FACS (DNA content, EdU); conditions: 18 h, 30 μM 4, 10 μM 5
# [11] = system: NMT (in-cell target engagement, ARL1); experiment: Sortase A assay (peptide addition to ARL1), murine cells; format: cell-based; conditions: MEF and NIH3T3 cells; 100, 10 and 1 μM 4
# Description: as §1
# [12] = system: MDA-MB-231 and HeLa cells; experiment: Bright-field microscopy; format: cell-based, human; conditions: both cell lines; 18 h; 30 μM 4, 10 μM 5
# human NMT1 = conditions: cited from earlier work
# [13] = system: de novo protein synthesis; experiment: L-AHA tagging of de novo protein synthesis; format: cell-based, human; conditions: MDA-MB-231 and HeLa; 18 h; 30 μM 4, 10 μM 5
# Source text: Cells were subsequently harvested as described before (see Myristic Acid Analogue (YnMyr) Tagging Experiments).
# both NMTs = target: both NMTs; parameters: method as in Mousnier et al., 2018; conditions: ref Mousnier et al., 2018; cited from earlier work
# A375 melanoma = system: A375 melanoma; parameters: method as in Bhandarkar et al., 2008; conditions: 11 μM 5, ref Bhandarkar et al., 2008; cited from earlier work
# NMT2 = conditions: ref Rampoldi et al., 2012; cited from earlier work
# Jurkat cells = experiment: Metabolic activity (Cell Titer Blue); conditions: Jurkat (suspension); 10 μM 5 for 72 h
# [14] = range of concentrations, 24, 48, 72 h
# [15] = recombinant human NMT1, mean of two independent assays in triplicate, values for 3 and 4 extrapolated, read-out: In Vitro IC50, This Article
Structure (SMILES),concentration at which the compound precipitated (absorbance at 750 nm) [1],hierarchical one-minus Pearson correlation clustering of enrichment of N-myristoylated proteins [5],effect on proliferation (nuclei counts) (MDA-MB-231 cells; [14]),N-myristoylation in cells (summary of assays) [6],quantification of YnMyr tagging of ten bands [6],rNMT1 activity [7],"IC50 [7, 15] [µM]",induction of apoptosis compared with MDA-MB-231 (HeLa cells [8]),depletion of S phase compared with MDA-MB-231 (HeLa cells [10]),cell morphology [12],decrease in L-AHA labeling [13],further results
"CCCCCCCCCCCCC(O)C(=O)O (centres unmarked) [Compound 3, 2-hydroxymyristic acid]",300 µM,do not affect NMT activity,unaffected,did not inhibit,at most a minor reduction,not reduced,> 300,–,–,–,–,"NMT inhibition (sortase A) ([2]; Jurkat, HEK293 and NCI-H23 cells, 100, 10 and 1 μM 3): did not inhibit NMT; effect of addition to medium ([3]; 3 at 1 mM, directly or in a mixture with BSA, data not shown): precipitation in the medium and cell death; metabolic labeling of cells with [3H]myristate ([4]; 100 μM to 1 mM, ref Vaandrager et al., 1996, Tan et al., 2016): reduce metabolic labeling; N-myristoylation in cells (summary of assays) ([6]; listed as 2-Hydroxymyristate): inactive; N-myristoylation in cells (summary of assays) ([6]; listed as 2-hydroxymyristic acid): unaffected; IC50 (human NMTs; ref Paige et al., 1990): 100 µM; inhibition of recombinant NMT1 ([7]; 100 μM 3, while soluble): did not inhibit"
"CCCCCCCCCCCCCC(=O)N[C@H](CO)[C@H](O)c1ccc([N+](=O)[O-])cc1 [Compound 4, D-NMAPPD]",300 µM,do not affect NMT activity,–,unaffected,at most a minor reduction,not reduced,> 300,less induction of apoptosis,correspondingly lower depletion of S phase,more rounded apoptotic cells,40%–80%,"NMT inhibition (sortase A) ([2]; PC-3 cells, 100, 10 and 1 μM 4): no effect; increase of ceramide concentrations [9]: up to 12 fold; IC50 ([4]; ref Kim et al., 2017, read-out: IC50, capacity to reduce N-myristoylation in living cells): ~15 µM; effect on proliferation (nuclei counts) (MDA-MB-231 cells; 30 μM 4, 24, 48, 72 h): hindered proliferation equally at all time points; NMT inhibition (sortase A) [11]: no effect; IC50 (human NMT1; ref Kim et al., 2017, read-out: biochemical human NMT1 IC50): 78 µM"
"Cc1nn(C)c(C)c1CCOc1c(-c2ccc3c(c2)c(CN(C)C)nn3C)ccc(F)c1F [Compound 2, IMP-1088]",above 300 μM,very similar to that of control cells not treated with YnMyr,only after 48 and 72 h,complete inhibition,–,–,–,–,–,–,–,"NMT engagement (sortase A) ([2]; all cell lines tested (panel of nine, incl. murine MEF and NIH3T3)): engaged NMT; N-myristoylation in cells ([4]; low nanomolar concentrations, ref Mousnier et al., 2018): completely inhibited; N-myristoylation in cells (summary of assays) ([6]; listed as IMP-1088): complete and specific inhibition; concentration for complete inhibition of in-cell N-myristoylation above the IC50 toward recombinant NMT1 ([6]; approximately): 30- to 100 fold; IC50 (human NMTs; ref Mousnier et al., 2018): < 0.001 µM; Kd (both NMTs): ~0.0002 µM; IC50 [7]: 0.00024 µM"
"O=C(/C=C/c1ccccc1)/C=C/c1ccccc1.O=C(/C=C/c1ccccc1)/C=C/c1ccccc1.O=C(/C=C/c1ccccc1)/C=C/c1ccccc1.[Pd].[Pd] [Compound 5, Tris (dibenzylideneacetone) di-palladium]",10 µM,do not affect NMT activity,–,unaffected; also recorded: does not inhibit NMT in cells,at most a minor reduction,–,4.2,less induction of apoptosis,correspondingly lower depletion of S phase,exhibited this phenotype,40%–80%,"NMT inhibition (sortase A) and cytotoxicity ([2]; A375, NCI-H929 and PANC1 cells, 10, 1 and 0.1 μM 5): cytotoxic in the absence NMT inhibition; precipitation in the media ([3]; cell culture media, black rod-shaped crystals): precipitated in the media; concentrations at which precipitation in growth media was most notable ([3]; growth media of multiple cell lines): over 1 μM; IC50 (MDA-MB-231 cells; time- and concentration-dependent, 24, 48, 72 h, read-out: IC50 of proliferation (nuclei counts)): ~0.3 µM; NMT1 inhibition (claimed selectivity NMT1 vs NMT2) (human NMT1; ref Rampoldi et al., 2012): 0.5 µM; IC50 (human NMTs; ref Bhandarkar et al., 2008): 0.5 to 1.3 µM; decrease in cell count (A375 melanoma): 96%; NMT2 inhibition (claimed selectivity NMT1 vs NMT2) (NMT2): 1.3 µM; effect on metabolic activity (Jurkat cells): no effect"
